{"source": "patent US20060095978A1", "about": "“Screening assay” (priority 2002, published 2006)", "key": {"CD25 on CD8+ T cells": {"system": "CD25 on CD8+ T cells", "assay": "CD25 expression on CD8+ T cells of peptide-stimulated OT-1 mice (FACS)", "assay_type": "in vivo, mouse", "conditions": "100 μg OVA257-264, after 7 hours", "experimental": "The animals are maintained in Microvent positive air supply cages (22±1° C., 55±5% relative humidity, 50-70 changes of fresh air/hour and 12 hours day and night cycle) with sawdust bedding."}, "CD69 on CD8+ T cells": {"system": "CD69 on CD8+ T cells", "assay": "CD69 expression on CD8+ T cells of antigen-stimulated OT-1 mice (FACS)", "assay_type": "in vivo, mouse", "experimental": "(§1) OT-1 mice are obtained as described in Hogquist et al., 1994, Cell 76(1)17-27. The animals are maintained in Microvent positive air supply cages (22±1° C., 55±5% relative humidity, 50-70 changes of fresh air/hour and 12 hours day and night cycle) with sawdust bedding. Standard laboratory mouse chow (SNIFF, Soest, Germany) and drinking water is given ad libitum. Groups of two to four, 8-10 weeks old, male or female OT-1 mice weighing between 20-25 g are used for the experiments described. The animals are grouped (4 per group) in type II Macrolon cages one day before the experiment.\nDoses of 3, 0.3 and 0.1 mg/kg b.w. are administered orally by gavage 2 hours before antigen challenge. […]\n(§2) Single cell suspensions of spleen or blood containing approximately 1×10^6 cells in 100 μl of FACS buffer are used for staining. […] Lymphocytes are gated in the FSC/SSC dot blot according to size and granularity and further analyzed for expression of CD8, TCR Vβ5 expression and activation markers. Data are presented as original dot blots or are calculated from dot blots as percentage of cells positively stained for TCR or activation markers within the CD8^+ population.\nData calculated from FACS analysis or serum cytokine determination are given as individual values for each animal. Data are analysed for normal distribution and then the ANOVA test for multiple comparison is applied using SigmaStat software. […]"}, "CD8+ T cells": {"system": "CD8+ T cells", "assay": "Frequency of CD8+ T cells in blood and spleen of OT-1 mice (FACS)", "assay_type": "in vivo, mouse", "experimental": "as §1\nDoses of 3, 0.3 and 0.1 mg/kg b.w. are administered orally by gavage 2 hours before antigen challenge. The compound is diluted with solvent (Neoral Placebo) and given in a volume of 0.2 ml. Animals in the control group receive the solvent only. Ovalbumin-derived peptide (OVA257-264, […], >80% purity, piChemie R&D, Graz, Austria) or whole OVA (Sigma) are used as antigens. Both are diluted in PBS and administerd i.p. in a final volume of 0.2 ml. At various time points after OVA257-264 peptide injection about 200 μl blood is withdrawn from the retro-orbital plexus under ether anesthesia. In order to avoid coagulation, blood is collected in EDTA-containing buffer. Mice are killed by cervical dislocation and the spleen is excised. Single cell suspension are prepared in PBS by gently pressing the spleen through a 100 μm cell strainer. Finally, blood and spleen cells are washed with FACS buffer (PBS, 1 g/l EDTA, 1 g/l NaN3, 10% FCS; pH 7.1) and taken up in the same buffer for FACS analysis.\nas §2"}, "IFN-γ [1]": {"system": "IFN-γ", "assay": "Serum IFN-γ in OVA257-264 stimulated OT-1 mice (sandwich ELISA)", "assay_type": "in vivo, mouse", "experimental": "as §1\n(§3) Cells are stimulated as described above and supernatant is harvested after 48 hours. The quantity of cytokines released by T cells into the culture medium after antigen stimulation is assayed by conventional sandwich ELISA. […] Specifically bound cytokines are quantified using biotinylated secondary antibodies JES6-5H4 (anti-IL-2), BVD6-24G2 (anti-IL-4), TRFK4 (anti-IL-5), SXC-1 (anti-IL-10) and XMG1.2 (anti-IFN-γ) followed by extravidin peroxidase and TMB substrate (both from Sigma). Absorption is measured at 450 and 690 nm on a Spectramax 340PC reader (Molecular Devices, Sunnyvale, Calif.). All cytokines are quantified with standard curves obtained with known amounts of recombinant mouse cytokines using SoftMax 3 software. […]"}, "IL-2": {"system": "IL-2", "assay": "Serum IL-2 in OVA257-264 stimulated OT-1 mice (sandwich ELISA)", "assay_type": "in vivo, mouse", "experimental": "as §1, §3"}, "IFN-γ [2]": {"system": "IFN-γ", "assay": "Serum IFN-γ in OVA/OVA323-339 stimulated DO11.10 mice (ELISA)", "assay_type": "in vivo, mouse", "conditions": "for IFN-γ level in pg/ml serum after day 0: 3 hours after first i.p. injection; for IFN-γ level in pg/ml serum after day 14: 3 hours after second i.p. injection", "experimental": "Groups of six, 8-10 weeks old, male or female DO11.10 mice weighing between 20-22 g are obtained as described in Murphy K. M. et al. 1990, Science 250:1720-1722. The animals are maintained in Microvent positive air supply cages (22±1° C., 55±5% relative humidity, 50-70 changes of fresh air/hour and 12 hours day and night cycle) with sawdust bedding. Standard laboratory mouse chow (SNIFF, Soest, Germany) and drinking water is given ad libidum. The animals are used for the study after an adaptation period of 10-14 days and grouped (6 per group) in type II Macrolon cages one day before the experiment.\nGroups of six DO11.10 mice are i.p. injected with 10 μg of ovalbumin (OVA, Sigma, St. Louis, USA) absorbed to 2 mg of Al(OH)3 (Alu Gel S; 2% Al(OH)3, Serva, Heidelberg, FRG) and diluted with saline to a volume of 0.2 ml or various amounts (1, 3, 10, 30, or 90 μg per mouse) of alum-precipitated OVA323-339 peptide (98% purity, piChem R&D, Graz Austria) in 0.2 ml on days 0 and 14. Before and at different time points on days 0 and 14 after the OVA or OVA323-339 peptide administration about 200 μl of blood are collected by puncture of the retro-orbital plexus under ether anesthesia.\nThe sera are collected and stored frozen at −20° C. until analyzed. […]\nMurine IL-2, IFN-γ and IL-4 are analyzed by immunoassays (Quantikine R&D Systems, Minneapolis, Minn., USA). Results are expressed as pg per ml serum expressed as mean±SEM pg of the cytokine indicated per ml serum. Test and control groups are evaluated by Dunn test by Kruskall-Wallis One Way Anova using the SigmaStat® program. […]\nMice of the control group are injected with alum. Blood is collected before and at 2, 4, and 6 hours after the first peptide injection. INF-γ is determined in the sera by an ELISA. Results are expressed as mean pg per ml serum±SEM. […]"}, "Splenocytes of OT-1 mice [3]": {"system": "Splenocytes of OT-1 mice", "assay": "Cytokine production assay, OT-1 splenocytes", "assay_type": "cell-based, mouse", "conditions": "high amounts of OVA protein", "experimental": "Cells are stimulated as described above and supernatant is harvested after 48 hours. The quantity of cytokines released by T cells into the culture medium after antigen stimulation is assayed by conventional sandwich ELISA. Microtiter plates (Nunc-Immunoplate™) are coated with the cytokine-specific capture antibodies JES6-1A12 (anti-IL-2), 11B11 (anti-IL-4), TRFK5 (anti-IL-5), JES5-2A5 (anti-IL-10) or R4-6A2 (anti-IFN-γ) at 4° overnight. Supernatants are incubated on the coated plates for 2 hours. Specifically bound cytokines are quantified using biotinylated secondary antibodies JES6-5H4 (anti-IL-2), BVD6-24G2 (anti-IL-4), TRFK4 (anti-IL-5), SXC-1 (anti-IL-10) and XMG1.2 (anti-IFN-γ) followed by extravidin peroxidase and TMB substrate (both from Sigma). Absorption is measured at 450 and 690 nm on a Spectramax 340PC reader (Molecular Devices, Sunnyvale, Calif.). All cytokines are quantified with standard curves obtained with known amounts of recombinant mouse cytokines using SoftMax 3 software. All mAbs and recombinant mouse cytokine standards are purchased from BD PharMingen, Heidelberg, Germany."}, "Splenocytes of OT-1 mice [4]": {"system": "Splenocytes of OT-1 mice", "assay": "T cell proliferation assay, OT-1 splenocytes", "assay_type": "cell-based, mouse", "conditions": "high amounts of OVA protein", "experimental": "Splenocytes (4×10^5 cells/well) of OT-1 mice are stimulated in 200 μl final volume in 96-well flat bottomed plates with titrated amounts of OVA or OVA257-264 peptide at 37°. As medium RPMI 1640 supplemented with 10% FCS, 2.0 g/l NaHCO3, 2 mM L-glutamin, 100 IU/ml penicillin, 100 μg/ml streptomycin and 5×10^−5 M β-mercaptoethanol (Sigma, Vienna, Austria) is used. After 48 hours, cells are pulsed with 0.5 μCi ^3H-thymidine for 8 hours and the incorporated radioactivity is measured on a liquid scintillation β-counter (Trilux, 1450 Microbeta, Wallac, Turku, Finland)."}, "[5]": {"conditions": "peptide-induced activation in OT-1 mice"}}}
{"molecule": "OVA257-264: peptide derived from chicken ovalbumin containing amino acids from position 257 to 264", "values": [{"measurement": "maximal up-regulation of CD25", "setting": "CD25 on CD8+ T cells", "result": "ca. 40 fold increase"}, {"measurement": "maximal up-regulation of CD69", "setting": "CD69 on CD8+ T cells; 100 μg OVA257-264, after 3 hours", "result": "ca. 155 fold increase"}, {"measurement": "change of CD8+ T cells in the spleen", "setting": "CD8+ T cells; 100 μg OVA257-264 i.p.", "result": "no significant decrease"}, {"measurement": "frequency of CD8+ expressing cells among the lymphocyte population in the blood", "setting": "CD8+ T cells; 100 μg OVA257-264 i.p., within 3 hours, from around 30%", "result": "less than 2.5%"}, {"measurement": "time of early peak of serum IFN-γ", "setting": "IFN-γ [1]; [5]", "result": 4, "unit": "h"}, {"measurement": "minimal amount required to induce significant serum quantities of IFN-γ", "setting": "IFN-γ [1]; per animal, i.p., 4 hours", "result": 30, "unit": "µg"}, {"measurement": "time of early peak of serum IL-2", "setting": "IL-2; [5]", "result": 4, "unit": "h"}, {"measurement": "minimal amount required to induce significant serum quantities of IL-2", "setting": "IL-2; per animal, i.p., 4 hours", "result": 30, "unit": "µg"}]}
{"molecule": "p/p: 10 μg OVA323-339 peptide/10 μg OVA323-339 peptide i.p. on days 0 and 14 (KISQAVHAAHAEINEAG; UniProt P01012 323-339, looked up, fragment)", "values": [{"measurement": "IFN-γ level in pg/ml serum after day 0", "setting": "IFN-γ [2]", "result": "483.215 ± 134.641", "unit": "pg/mL"}, {"measurement": "IFN-γ level in pg/ml serum after day 14", "setting": "IFN-γ [2]", "result": "554.136 ± 110.652", "unit": "pg/mL"}]}
{"molecule": "OVA: chicken ovalbumin (protein, UniProt P01012 2-386, looked up) Ovalbumin: GSIGAASMEFCFDVFKELKVHHANENIFYCPIAIMSALAMVYLGAKDSTRTQINKVVRFDKLPGFGDSIEAQCGTSVNVHSSLRDILNQITKPNDVYSFSLASRLYAEERYPILPEYLQCVKELYRGGLEPINFQTAADQARELINSWVESQTNGIIRNVLQPSSVDSQTAMVLVNAIVFKGLWEKAFKDEDTQAMPFRVTEQESKPVQMMYQIGLFRVASMASEKMKILELPFASGTMSMLVLLPDEVSGLEQLESIINFEKLTEWTSSNVMEERKIKVYLPRMKMEEKYNLTSVLMAMGITDVFSSSANLSGISSAESLKISQAVHAAHAEINEAGREVVGSAEAGVDAASVSEEFRADHPFLFCIKHIATNAVLFFGRCVSP", "values": [{"measurement": "cytokine release of OT-1 splenocytes in vitro", "setting": "Splenocytes of OT-1 mice [3]", "result": "cytokine release"}, {"measurement": "serum INF-γ levels after challenge with OVA-protein", "setting": "IFN-γ [2]; given amount (10 μg) of OVA-protein", "result": "under the detection limit"}, {"measurement": "INF-γ levels after second OVA exposure versus before", "setting": "IFN-γ [2]; primary OVA, second OVA exposure 2 weeks later", "result": "fail to increase"}, {"measurement": "serum INF-γ levels versus alum alone", "setting": "IFN-γ [2]; primary sensitization with 10 μg of OVA", "result": "does not change"}, {"measurement": "increase of CD69 expression in the spleen", "setting": "CD69 on CD8+ T cells; 1 mg OVA i.p., late (7-24 hours)", "result": "≤ 2.5", "unit": "fold"}, {"measurement": "frequency of CD8+ T cells in both spleen and blood", "setting": "CD8+ T cells; 1 mg OVA i.p., over 48 hours", "result": "declines marginally"}, {"measurement": "proliferation of OT-1 splenocytes in vitro", "setting": "Splenocytes of OT-1 mice [4]", "result": "induce proliferation"}]}
{"molecule": "o/o: 10 μg OVA/10 μg OVA i.p. on days 0 and 14 (protein, UniProt P01012 2-386, looked up) Ovalbumin: GSIGAASMEFCFDVFKELKVHHANENIFYCPIAIMSALAMVYLGAKDSTRTQINKVVRFDKLPGFGDSIEAQCGTSVNVHSSLRDILNQITKPNDVYSFSLASRLYAEERYPILPEYLQCVKELYRGGLEPINFQTAADQARELINSWVESQTNGIIRNVLQPSSVDSQTAMVLVNAIVFKGLWEKAFKDEDTQAMPFRVTEQESKPVQMMYQIGLFRVASMASEKMKILELPFASGTMSMLVLLPDEVSGLEQLESIINFEKLTEWTSSNVMEERKIKVYLPRMKMEEKYNLTSVLMAMGITDVFSSSANLSGISSAESLKISQAVHAAHAEINEAGREVVGSAEAGVDAASVSEEFRADHPFLFCIKHIATNAVLFFGRCVSP", "values": [{"measurement": "IFN-γ level in pg/ml serum after day 0", "setting": "IFN-γ [2]", "result": "3.788 ± 1.495", "unit": "pg/mL"}, {"measurement": "IFN-γ level in pg/ml serum after day 14", "setting": "IFN-γ [2]", "result": "6.796 ± 6.189", "unit": "pg/mL"}]}
